In patent US20250073244A1, “CRYSTALLINE FORMS OF PENTAAZA MACROCYCLIC RING COMPLEX” (Galera Labs, LLC, priority 2023, published 2025):

Legend:
[1] = Equilibration with solvents at 25° C.
Method: About 50 mg of drug substance was equilibrated in suitable amount of solvent at 25° C. for 2 weeks with a stirring plate (Table 30). Obtained suspension was filtered. The solid part (wet cake) was investigated by XRPD. When differences were observed, additional investigations were performed (e.g. DSC, TGA. FT-IR, PLM/SEM, etc.).
[…] The solid part (wet cake) was investigated by XRPD. If differences are observed, additional investigation will be performed (e.g. DSC, TGA, HPLC, etc.)

[2] = Equilibration with solvents at 50° C. for 1 week
Method: About 50 mg of drug substance was equilibrated in minimal amount of solvent at 50° C. for 1 week with a stirring plate (Table 32). Obtained suspension was filtered. The solid part (wet cake) was investigated by XRPD. When differences were observed, additional investigations were performed (e.g. DSC, TGA. FT-IR, PLM/SEM, etc.).

[3] = Precipitation by addition of anti-solvent; details: anti-solvent Heptane
Method: About 50 mg of drug substance was dissolved in a good solvent. Anti-solvent was added into the obtained solutions slowly. Precipitates were collected by filtration. The solid part (wet cake) was investigated by XRPD. When differences were observed, additional investigations were performed (e.g. DSC, TGA. FT-IR, PLM/SEM, etc.).
Scale up: About 200 mg of drug substance was dissolved in EtOAc. Heptane was added to the obtained solutions. The solid part (wet cake) was investigated by XRPD. When differences were observed, additional investigations were performed (e.g. DSC, TGA. FT-IR, PLM/SEM, etc.)

[4] = Crystallization at room temperature by slow evaporation
Method: Combined with approximate solubility experiment, solubility samples were filtered by 0.45 μm nylon filter. Obtained solutions were slow evaporated at ambient condition. Solid residues were examined for their polymorphic form (Table 34).
Scale up: About 200 mg of drug substance will be dissolved in EtOAc. Obtained solutions shall be exposed to ambient condition (protected by N2) to allow slow evaporation of solvents (Table 35).

[5] = Crystallization from hot saturated solutions by slow cooling; details: slow cooling 50° C. to 5° C. at 0.1° C./min
Method: Approximate 100 mg of drug substance was dissolved in the minimal amount of selected solvents at 50° C. Obtained solutions were cooled to 5° C. at 0.1° C./min. Precipitates were collected by filtration. The solid part (wet cake) was investigated by XRPD. When differences were observed, additional investigations were performed (e.g. DSC, TGA. FT-IR, PLM/SEM, etc.).
Scale up: About 200 mg of drug substance will be dissolved in MEK. Obtained solutions will be applied with cooling rate of 0.1° C./min for slow cooling.

[6] = Crystallization from hot saturated solutions by fast cooling; details: fast cooling from 50° C. (ice bath); MEK; yellow solid
Method: Approximate 100 mg of drug substance was dissolved in the minimal amount of selected solvents at 50° C. Obtained solutions were put into an ice bath. Precipitates were collected by filtration. The solid part (wet cake) was investigated by XRPD. When differences were observed, additional investigations were performed (e.g. DSC, TGA. FT-IR, PLM/SEM, etc.). When no precipitation was obtained, the solutions were put in −20° C. freezer for crystallization.

[7] = Scale up experiment of Pattern A and Pattern D; details: Slow cooling, MEK
Method: About 6 g API were used for Pattern A and Pattern D scale up.
Obtained suspension was filtered. The solid part (wet cake) was investigated by XRPD.
About 3 g drug substance were equilibrated in 8 mL of solvent (Water: Acetone, 10:90, v:v) at 25° C. for 1 week with a stirring plate. Obtained suspension was filtered. The solid part (wet cake) was investigated by XRPD.

[8] = 2 weeks, Heptane/Acetone, 80/20
[9] = 5 days, protected by N2, Acetone
[10] = 5 days, protected by N2, Heptane
[11] = 5 days, protected by N2, Toluene

In the case of `CCC(=O)[O][Mn][O]C(=O)CC.c1cc2nc(c1)CN[C@H]1CCCC[C@@H]1NCCN[C@H]1CCCC[C@@H]1NC2` [API], the Comments ([1]; 2 weeks, EtOAc) is reported as “API degradation,”, the purity ([1]; 2 weeks, EtOAc) is reported as “purity 75.69%” and the purity ([1]; 2 weeks, Heptane) is reported as “Purity 99.02%”. The Comments [1, 8] was “API degradation,”, the purity [1, 8] was “purity 94.83%” and the Comments ([1]; 2 weeks, Heptane/EtOAc, 80/20) was “API degradation,”. The purity ([1]; 2 weeks, Heptane/EtOAc, 80/20) was “purity 92.64%”, the Comments ([1]; 2 weeks, IPAC) was “API degradation,” and the purity ([1]; 2 weeks, IPAC) was “purity 84.49%”. For the same compound, the Comments ([1]; 2 weeks, MTBE) was “API degradation,”, the purity ([1]; 2 weeks, MTBE) was “purity 88.12%” and the Comments ([1]; 2 weeks, MTBE/Acetone, 80/20c) was “API degradation,”. The purity ([1]; 2 weeks, MTBE/Acetone, 80/20c) was “purity 87.39%”, the Comments ([1]; 2 weeks, MTBE/EIOAc, 80/20) was “API degradation,” and the purity ([1]; 2 weeks, MTBE/EIOAc, 80/20) was “purity 89.32%”. The Comments [1, 9] was “API degradation”, the purity [1, 9] was 98.41% and the Comments ([1]; 5 days, protected by N2, EtOAc) was “API degradation”. The purity ([1]; 5 days, protected by N2, EtOAc) was 97.78%, the Comments [1, 10] was “API degradation” and the purity [1, 10] was 99.85%. For the same compound, the Comments ([1]; 5 days, protected by N2, IPAC) was “API degradation”, the purity ([1]; 5 days, protected by N2, IPAC) was 98.30% and the Comments ([1]; 5 days, protected by N2, MEK) was “API degradation”. For the same compound, the purity ([1]; 5 days, protected by N2, MEK) was 97.52%, the Comments ([1]; 5 days, protected by N2, MTBE) was “API degradation” and the purity ([1]; 5 days, protected by N2, MTBE) was 98.62%. The Comments [1, 11] was “API degradation”, the purity [1, 11] was 92.88% and the Comments ([2]; Heptane) was “API degradation”. For the same compound, the purity ([2]; Heptane) was 94.65%, the Comments ([2]; Heptane/Acetone, 80/20) was “API degradation” and the purity ([2]; Heptane/Acetone, 80/20) was 95.63%. For the same compound, the Comments ([2]; Heptane/EtOAc, 80/20) was “API degradation”, the purity ([2]; Heptane/EtOAc, 80/20) was 85.84% and the Comments ([2]; Heptane/EtOH, 80/20) was “API was soluble in the solvent”. For the same compound, the Comments ([2]; Heptane/IPA, 80/20) was “API was soluble in the solvent”, the Comments ([2]; MTBE) was “API degradation” and the purity ([2]; MTBE) was 92.26%. For the same compound, the Comments ([2]; MTBE/Acetone, 80/20) was “API degradation”, the purity ([2]; MTBE/Acetone, 80/20) was 93.80% and the Comments ([2]; MTBE/EtOAc, 80/20) was “API degradation”. The purity ([2]; MTBE/EtOAc, 80/20) was 87.67%, the Comments ([2]; MTBE/EtOH, 80/20) was “API was soluble in the solvent” and the Comments ([2]; MTBE/IPA, 80/20) was “API was soluble in the solvent”. For the same compound, the purity ([3]; solvent Acetone) was “purity 99.93%”, the purity ([3]; solvent EtOAc) was “purity 99.95%” and the Comments ([4]; protect with N2, 1,4-Dioxane) was “API degradation, purity”. For the same compound, the purity ([4]; protect with N2, 1,4-Dioxane) was 97.76%, the Comments ([4]; protect with N2, ACN) was “API degradation, purity” and the purity ([4]; protect with N2, ACN) was 98.98%. For the same compound, the purity ([4]; protect with N2, Acetone) was “Purity 99.39%”, the purity ([4]; protect with N2, DCM) was “Purity 99.93%” and the purity ([4]; protect with N2, EtOAc) was “Purity 99.42%”. For the same compound, the purity ([4]; protect with N2, Ethanol) was “Purity 99.65%”, the purity ([4]; protect with N2, IPA) was “Purity 99.63%” and the purity ([4]; protect with N2, IPAC) was “Purity 99.90%”. For the same compound, the purity ([4]; protect with N2, MEK) was “Purity 99.33%”, the purity ([4]; protect with N2, MTBE) was “Purity 99.88%” and the purity ([4]; protect with N2, Methanol) was “Purity 99.92%”. The purity ([4]; protect with N2, THF) was “Purity 99.12%”, the Comments ([4]; protect with N2, Toluene) was “API degradation, purity” and the purity ([4]; protect with N2, Toluene) was 96.47%. For the same compound, the Comments ([5]; Acetone) was “API was soluble in the solvent”, the purity ([5]; EtOAc) was “White solid, purity 100%” and the Comments ([5]; IPA) was “API was soluble in the solvent”. The Comments ([5]; IPAC) was “API was soluble in the solvent”, the purity ([5]; MEK) was “White solid, purity 100%” and the Comments ([5]; Water) was “API was soluble in the solvent”. The purity [6] was “Yellow solid, 94.19%”, the Comments [7] was “API degradation, purity” and the purity [7] was 93.4%.
